The values that follow come from patent publication US10577362B2, “Substituted 2, 4-diamino-quinoline derivatives for use in the treatment of proliferative diseases” (GENOSCIENCE PHARMA, priority 2016, dated 2020).

Assay [1] relates to 786-O (renal adenocarcinoma) cell line. Description: CellTiter-Glo luminescent cell viability assay, 786-O. The format is cell-based, human. To be noted: Homo sapiens, 786-0; for viability at 4 µM / viability at 10 µM: 786-O, 72 h; for viability at 4 µM: compound at 4 μM; for viability at 10 µM: compound at 10 μM; for pEC50: 786-O cell line, 72 h incubation, CellTiter-Glo, read-out: EC50, growth inhibition of 786-O. The procedure, abridged:
(§1)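 In a 72 h viability assay, compound-treated cells were compared against matched H2O or DMSO diluent controls by luminescence, points in at least duplicate.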
A general note: In ATP-based viability assays light output follows the ATP content of the culture.

The subject of assay [2] is HepG2 (hepatocellular carcinoma) cell line. In words: CellTiter-Glo luminescent cell viability assay, HepG2. The format is cell-based, human. Particulars: Homo sapiens; for viability at 4 µM / viability at 10 µM: HepG2, HepG, 72 h; for viability at 4 µM: compound at 4 μM; for viability at 10 µM: compound at 10 μM; for pEC50: HepG2 cell line, 72 h incubation, CellTiter-Glo, read-out: EC50, growth inhibition of HepG2. The procedure, abridged: as §1

Assay [3] has as its system HCT-116 (colorectal carcinoma) cell line. Description: CellTiter-Glo luminescent cell viability assay, HCT-116. The format is cell-based, human. To be noted: Homo sapiens; for viability at 4 µM: HCT-116, compound at 4 μM; for viability at 4 µM / viability at 10 µM: 72 h; for viability at 10 µM: HCT-116, compound at 10 μM; for pEC50: HCT-116 cell line, 72 h incubation, CellTiter-Glo, read-out: EC50, growth inhibition of HCT-116. The procedure, abridged: as §1

Assay [4] deals with PANC-1 (prancreatic carcinoma) cell line. In words: CellTiter-Glo luminescent cell viability assay, PANC-1. The format is cell-based. To be noted: Homo sapiens; for viability at 4 µM: PANC-1, 4 μM; for viability at 4 µM / viability at 10 µM: 72 h, % of signal of diluent-treated cultures; for viability at 10 µM: PANC-1, 10 μM; for pEC50: PANC-1 cell line, 72 h incubation, CellTiter-Glo, read-out: EC50 (growth inhibition assay of PANC-1 cell line). Summed up: as §1

For assay [5], the system named is MOLM-14 (acute myeloid leukemia) cell line. Description: CellTiter-Glo luminescent cell viability assay, MOLM-14. The format is cell-based, human. Particulars: Homo sapiens; for viability at 4 µM: MOLM-14, compound at 4 μM; for viability at 4 µM / viability at 10 µM: 72 h; for viability at 10 µM: MOLM-14, compound at 10 μM; for pEC50: MOLM-14 cell line, 72 h incubation, CellTiter-Glo, read-out: EC50, growth inhibition of MOLM-14. Summed up: as §1

In assay [6] the test system is A375 (malignant melanoma) cell line. In words: CellTiter-Glo luminescent cell viability assay, A375. The format is cell-based, human. To be noted: Homo sapiens, A-375; for viability at 4 µM: A375, compound at 4 μM; for viability at 4 µM / viability at 10 µM: 72 h; for viability at 10 µM: A375, compound at 10 μM; for pEC50: A375 cell line, 72 h incubation, CellTiter-Glo, read-out: EC50, growth inhibition of A375. Summed up: as §1

Assay [7] relates to Huh7 (hepatocellular carcinoma) cell line. In words: CellTiter-Glo luminescent cell viability assay, Huh7. Particulars: Homo sapiens, Huh-7; for viability at 4 µM: Huh7, compound at 4 μM; for viability at 4 µM / viability at 10 µM: 72 h; for viability at 10 µM: Huh7, compound at 10 μM; for pEC50: Huh7 cell line, 72 h incubation, CellTiter-Glo, read-out: EC50, growth inhibition of Huh7. The format is cell-based, human. The procedure, abridged: as §1

pEC50: −log10 of the molar value.

As to `CN(C)C1CCCN(c2c(C#N)c(NCc3ccc(Cl)cc3)nc3ccccc23)C1` (stereo not shown) [Compound 3164CN, 2-(4-chlorobenzylamino)-3-cyano-4-[3-(dimethylamino)piperidin-1-yl]quinoline], the viability at 4 µM amounted to 97.1% in assay [1]; 101% in assay [2]; 91.2% in assay [3]; 98.7% in assay [4]; 113% in assay [5]; 89.2% in assay [6]. In addition, the viability at 4 µM in assay [7] was 91.9%. In addition, the viability at 10 µM was 64.1% in assay [1]; 52.9% in assay [2]; 38.4% in assay [3]; 69.6% in assay [4]; 74.6% in assay [5]; 39.3% in assay [6]. The viability at 10 µM in assay [7] was 51.1%.

With `COc1ccc(CNc2nc3ccccc3c(N3CCC(NC(C)(C)C)CC3)c2C#N)cc1` [Compound 3290CN, 2-(4-methoxybenzylamino)-3-cyano-4-[4-(tert-butylamino)piperidin-1-yl]quinoline], the pEC50 in assay [1] is 5.00 to 5.30; in assay [2], 5.30 to 6.30; in assay [3], 5.30 to 6.30; in assay [4], 5.00 to 5.30; in assay [5], 5.00 to 5.30; in assay [6] it was 5.30 to 6.30. Also, the pEC50 in assay [7] is 5.30 to 6.30. The viability at 4 µM in assay [1] was 74.1%; in assay [2], 75.5%; in assay [3], 43.8%; in assay [4], 95.7%; in assay [5] it was 76.4%; in assay [6], 57.6%. The viability at 4 µM in assay [7] was determined as 80.2%. The viability at 10 µM was found to be 2.7% in assay [1]; 0.7% in assay [2]; 0.7% in assay [3]; 38.3% in assay [4]; 7.4% in assay [5]; 0.8% in assay [6]. Further, the viability at 10 µM in assay [7] came out at 1%.

Take `CC(C)(C)NC1CCN(c2c(C#N)c(NCc3ccc4c(c3)OCO4)nc3ccccc23)CC1` [Compound 3300CN, 2-[(benzo[d][1,3]dioxol-5-ylmethyl)amino]-3-cyano-4-[4-(tert-butylamino)piperidin-1-yl]quinoline]: the pEC50 in assay [1] is 5.00 to 5.30; in assay [2], 5.00 to 5.30; in assay [3], 5.30 to 6.30; in assay [4], 5.00 to 5.30; in assay [5], 5.00 to 5.30; in assay [6] it was 5.30 to 6.30. For the same compound, the pEC50 in assay [7] was 5.00 to 5.30. The viability at 4 µM in assay [1] worked out at 60%; in assay [2], 62.7%; in assay [3] it was 13.9%; in assay [4] it was 78%; in assay [5], 70.2%; in assay [6], 47.2%. The viability at 4 µM in assay [7] worked out at 63.2%. For the same compound, the viability at 10 µM in assay [1] came to 0.8%; in assay [2], 0.5%; in assay [3], 0.2%; in assay [4], 27.4%; in assay [5], 0.5%; in assay [6], 0.4%. The viability at 10 µM in assay [7] was found to be 0.5%.

As for `Cc1ccc2nc(NCc3ccc(Cl)cc3)c(C#N)c(N3CCC(NC(C)(C)C)CC3)c2c1` [Compound 418CN, 2-(4-chlorobenzylamino)-3-cyano-4-[4-(tert-butylamino)piperidin-1-yl]-6-methylquinoline], the pEC50 in assay [1] is 5.30 to 6.30; in assay [2] it was 5.30 to 6.30; in assay [3] it was 5.30 to 6.30; in assay [4], 5.00 to 5.30; in assay [5], 5.30 to 6.30; in assay [6], 5.30 to 6.30. The pEC50 in assay [7] was 5.30 to 6.30. The viability at 4 µM in assay [1] worked out at 0.9%; in assay [2] it was 5%; in assay [3] it was 0.2%; in assay [4], 79.8%; in assay [5], 3.8%; in assay [6], 0.3%. Besides, the viability at 4 µM in assay [7] turned out to be 50.5%. Besides, the viability at 10 µM is 0.2% in assay [1]; 0.2% in assay [2]; 0.2% in assay [3]; 0.4% in assay [4]; 0.3% in assay [5]; 0.3% in assay [6]. Besides, the viability at 10 µM in assay [7] worked out at 0.3%.

In the case of `CCN(CC)C1CCN(c2c(C#N)c(NCc3ccc(Cl)cc3)nc3ccccc23)CC1` [Compound 184CN, 2-(4-chlorobenzylamino)-3-cyano-4-[4-(diethylamino)piperidin-1-yl]quinoline], the pEC50 was 5.00 to 5.30 in assay [1]; 5.00 to 5.30 in assay [2]; 5.00 to 5.30 in assay [3]; 5.00 to 5.30 in assay [4]; 5.00 to 5.30 in assay [5]; 5.30 to 6.30 in assay [6]. For the same compound, the pEC50 in assay [7] is 5.00 to 5.30. The viability at 4 µM in assay [1] amounted to 72.6%; in assay [2], 72.4%; in assay [3], 65.7%; in assay [4], 91.8%; in assay [5], 95.1%; in assay [6], 53.7%. For the same compound, the viability at 4 µM in assay [7] worked out at 74.7%. In addition, the viability at 10 µM in assay [1] was 1.1%; in assay [2], 0.8%; in assay [3], 0.9%; in assay [4] it was 46.6%; in assay [5], 0.7%; in assay [6] it was 0.8%. Moreover, the viability at 10 µM in assay [7] was 0.7%.

With `CC(C)(C)NC1CCN(c2c(C#N)c(NCc3ccccn3)nc3ccccc23)CC1` [Compound 3308CN, 2-[(pyridin-2-ylmethyl)amino]-3-cyano-4-[4-(tert-butylamino)piperidin-1-yl]quinoline], the viability at 4 µM in assay [1] stood at 101%; in assay [2], 92.6%; in assay [3], 72.8%; in assay [4], 102%; in assay [5] it was 85.8%; in assay [6], 96.3%. The viability at 4 µM in assay [7] was found to be 88.6%. For the same compound, the viability at 10 µM in assay [1] amounted to 81.1%; in assay [2] it was 76.5%; in assay [3], 32.9%; in assay [4] it was 99.1%; in assay [5] it was 57.1%; in assay [6] it was 67.7%. In assay [7], the viability at 10 µM was 74.2%.

The viability is a read-out of living cells in per cent, often relative to untreated cells. In general, pEC50 refers to the negative decadic logarithm of the EC50, by convention in mol/L.
